# Measured values from patent US20260297121A1, “MITHRAMYCIN (MTM) 2’ OXIMES” (University of Kentucky Research Foundation, priority 2023, published 2026).
# Assays:
# PC3 = experiment: IC50 in PC3 cells; assay type: cell-based; conditions: Homo sapiens, PC-3, read-out: IC50 PC2, Table 2; head prints PC2, text PC3
# Method: (§1) Exemplary compounds of the presently-disclosed subject matter were assessed for activity, including clearance, potency, and selectivity. Results from studies are compiled in Tables 2-4.
# (§2) Desirable clearance was identified at lower values of mL hr^−1kg^−1 (e.g., about ≤10 mL hr^−1 kg^−1), desirable potency was identified at lower values of IC50 (e.g., about ≤10 nM in TC32 cells), and desired selectivity was identified at higher ratios of IC50 in PC3/IC50 in TC32 (e.g. about >10).
# log P = assay type: physicochemical
# TC32 cells = experiment: Potency IC50 in TC32 cells and selectivity; assay type: cell-based; conditions: Homo sapiens, TC-32, Table 2, read-out: IC50 TC32
# Method: as §1, §2
# [1] = Clearance (CL) / pharmacokinetics; assay type: in vivo, mice; conditions: Table 2
# Method: as §1, §2
# Pharmacokinetics of exemplary compounds of the presently-disclosed subject matter were studied in mice following bolus IV dosing. Groups of three mice were administered the compound(s) and blood samples were collected via saphenous bleed. Plasma was separated by centrifugation and extracted to quantitate analytes by LC/MS/MS. Sample analysis followed upon the system meeting system suitability criteria customary for fit for purpose analytical methods. FIG. 1A includes data comparing YL-C09 to mithramycin (MTM) dosed separately. FIG. 1B includes data for YL-B171, YL-C110 and MTM dosed in cassette format.
Structure (SMILES),IC50 (PC3) [nM],logP (log P; Table 2),IC50 (TC32 cells) [nM],log P (log P; Table 2),CL [1] [mL/min/kg],log P (log P; Table 3)
CO[C@H](C(=NOCCNC(=O)c1ccc2scnc2c1)[C@@H](O)[C@@H](C)O)[C@@H]1Cc2cc3cc(O[C@H]4C[C@@H](O[C@H]5C[C@@H](O)[C@H](O)[C@@H](C)O5)[C@H](O)[C@@H](C)O4)c(C)c(O)c3c(O)c2C(=O)[C@H]1O[C@H]1C[C@@H](O[C@H]2C[C@@H](O[C@H]3C[C@](C)(O)[C@H](O)[C@@H](C)O3)[C@@H](O)[C@@H](C)O2)[C@H](O)[C@@H](C)O1 [YL-C61],214,1.12,64.3,,,
CO[C@H](C(=NOCCNC(=O)c1cc2cc(Cl)cc(Cl)c2[nH]1)[C@@H](O)[C@@H](C)O)[C@@H]1Cc2cc3cc(O[C@H]4C[C@@H](O[C@H]5C[C@@H](O)[C@H](O)[C@@H](C)O5)[C@H](O)[C@@H](C)O4)c(C)c(O)c3c(O)c2C(=O)[C@H]1O[C@H]1C[C@@H](O[C@H]2C[C@@H](O[C@H]3C[C@](C)(O)[C@H](O)[C@@H](C)O3)[C@@H](O)[C@@H](C)O2)[C@H](O)[C@@H](C)O1 [YL-B167],48.4,2.83,15.1,,,
COC(C(=NOCC(Cc1c[nH]c2ccccc12)NC(=O)c1ccc2scnc2c1)C(O)C(C)O)C1Cc2cc3cc(OC4CC(OC5CC(O)C(O)C(C)O5)C(O)C(C)O4)c(C)c(O)c3c(O)c2C(=O)C1OC1CC(OC2CC(OC3CC(C)(O)C(O)C(C)O3)C(O)C(C)O2)C(O)C(C)O1 (stereo not shown) [YL-C55],,,,3.26,,
COC(C(=NOCC(Cc1c[nH]c2ccccc12)NC(=O)c1cc2cc(Cl)ccc2[nH]1)C(O)C(C)O)C1Cc2cc3cc(OC4CC(OC5CC(O)C(O)C(C)O5)C(O)C(C)O4)c(C)c(O)c3c(O)c2C(=O)C1OC1CC(OC2CC(OC3CC(C)(O)C(O)C(C)O3)C(O)C(C)O2)C(O)C(C)O1 (stereo not shown) [YL-C54],,,,4.34,,
COC(C(=NOCCNC(=O)c1c(-c2ccc(Cl)cc2)c2cc(Cl)ccc2n1CC(C)C)C(O)C(C)O)C1Cc2cc3cc(OC4CC(OC5CC(O)C(O)C(C)O5)C(O)C(C)O4)c(C)c(O)c3c(O)c2C(=O)C1OC1CC(OC2CC(OC3CC(C)(O)C(O)C(C)O3)C(O)C(C)O2)C(O)C(C)O1 (stereo not shown) [YL-C100],,,,6.21,,
CO[C@H](C(=NOCCNC(=O)c1c(-c2ccc(Cl)cc2)c2cc(Cl)ccc2n1C)[C@@H](O)[C@@H](C)O)[C@@H]1Cc2cc3cc(O[C@H]4C[C@@H](O[C@H]5C[C@@H](O)[C@H](O)[C@@H](C)O5)[C@H](O)[C@@H](C)O4)c(C)c(O)c3c(O)c2C(=O)[C@H]1O[C@H]1C[C@@H](O[C@H]2C[C@@H](O[C@H]3C[C@](C)(O)[C@H](O)[C@@H](C)O3)[C@@H](O)[C@@H](C)O2)[C@H](O)[C@@H](C)O1 [YL-C98],,,,4.6,,
COc1ccc2[nH]c(C(=O)NCCON=C([C@@H](O)[C@@H](C)O)[C@@H](OC)[C@@H]3Cc4cc5cc(O[C@H]6C[C@@H](O[C@H]7C[C@@H](O)[C@H](O)[C@@H](C)O7)[C@H](O)[C@@H](C)O6)c(C)c(O)c5c(O)c4C(=O)[C@H]3O[C@H]3C[C@@H](O[C@H]4C[C@@H](O[C@H]5C[C@](C)(O)[C@H](O)[C@@H](C)O5)[C@@H](O)[C@@H](C)O4)[C@H](O)[C@@H](C)O3)c(-c3ccc(Cl)cc3)c2c1 [YL-C114],,,,3.58,0.467,
COC(C(=NOCCNC(=O)c1cc2cc(C(F)(F)F)ccc2[nH]1)C(O)C(C)O)C1Cc2cc3cc(OC4CC(OC5CC(O)C(O)C(C)O5)C(O)C(C)O4)c(C)c(O)c3c(O)c2C(=O)C1OC1CC(OC2CC(OC3CC(C)(O)C(O)C(C)O3)C(O)C(C)O2)C(O)C(C)O1 (stereo not shown) [YL-B175],1.5,2.54,1.2,,,
CO[C@H](C(=NOCCNC(=O)c1[nH]c2ccc(Cl)cc2c1C1CC1)[C@@H](O)[C@@H](C)O)[C@@H]1Cc2cc3cc(O[C@H]4C[C@@H](O[C@H]5C[C@@H](O)[C@H](O)[C@@H](C)O5)[C@H](O)[C@@H](C)O4)c(C)c(O)c3c(O)c2C(=O)[C@H]1O[C@H]1C[C@@H](O[C@H]2C[C@@H](O[C@H]3C[C@](C)(O)[C@H](O)[C@@H](C)O3)[C@@H](O)[C@@H](C)O2)[C@H](O)[C@@H](C)O1 [YL-C124],169,3.06,22.4,,,
COC(C(=NOCC(=O)Nc1cccc2cnccc12)C(O)C(C)O)C1Cc2cc3cc(OC4CC(OC5CC(O)C(O)C(C)O5)C(O)C(C)O4)c(C)c(O)c3c(O)c2C(=O)C1OC1CC(OC2CC(OC3CC(C)(O)C(O)C(C)O3)C(O)C(C)O2)C(O)C(C)O1 (stereo not shown) [YL-B160],1130,1.3,86.1,,,
CO[C@H](C(=NOC[C@@H](Cc1c[nH]c2ccccc12)NC(=O)c1ccc2scnc2c1)[C@@H](O)[C@@H](C)O)[C@@H]1Cc2cc3cc(O[C@H]4C[C@@H](O[C@H]5C[C@@H](O)[C@H](O)[C@@H](C)O5)[C@H](O)[C@@H](C)O4)c(C)c(O)c3c(O)c2C(=O)[C@H]1O[C@H]1C[C@@H](O[C@H]2C[C@@H](O[C@H]3C[C@](C)(O)[C@H](O)[C@@H](C)O3)[C@@H](O)[C@@H](C)O2)[C@H](O)[C@@H](C)O1 [YL-C53],,,,3.26,,
CO[C@H](C(=NOCCNC(=O)c1nnc2nc(C)cc(C)n12)[C@@H](O)[C@@H](C)O)[C@@H]1Cc2cc3cc(O[C@H]4C[C@@H](O[C@H]5C[C@@H](O)[C@H](O)[C@@H](C)O5)[C@H](O)[C@@H](C)O4)c(C)c(O)c3c(O)c2C(=O)[C@H]1O[C@H]1C[C@@H](O[C@H]2C[C@@H](O[C@H]3C[C@](C)(O)[C@H](O)[C@@H](C)O3)[C@@H](O)[C@@H](C)O2)[C@H](O)[C@@H](C)O1 [YL-B162],3000,-0.56,2840,,,
CO[C@H](C(=NOCC(=O)N[C@@H](Cc1c[nH]c2ccccc12)C(=O)Nc1ccc2scnc2c1)[C@@H](O)[C@@H](C)O)[C@@H]1Cc2cc3cc(O[C@H]4C[C@@H](O[C@H]5C[C@@H](O)[C@H](O)[C@@H](C)O5)[C@H](O)[C@@H](C)O4)c(C)c(O)c3c(O)c2C(=O)[C@H]1O[C@H]1C[C@@H](O[C@H]2C[C@@H](O[C@H]3C[C@](C)(O)[C@H](O)[C@@H](C)O3)[C@@H](O)[C@@H](C)O2)[C@H](O)[C@@H](C)O1 [YL-C39],,,,2.56,,
COC(C(=NOCCNC(=O)c1cc2c(=O)n(C)c(=O)n(C)c2[nH]1)C(O)C(C)O)C1Cc2cc3cc(OC4CC(OC5CC(O)C(O)C(C)O5)C(O)C(C)O4)c(C)c(O)c3c(O)c2C(=O)C1OC1CC(OC2CC(OC3CC(C)(O)C(O)C(C)O3)C(O)C(C)O2)C(O)C(C)O1 (stereo not shown) [YL-B179],3000,-0.02,679,,,
COc1ccc2[nH]c(C(=O)NCCON=C([C@@H](O)[C@@H](C)O)[C@@H](OC)[C@@H]3Cc4cc5cc(O[C@H]6C[C@@H](O[C@H]7C[C@@H](O)[C@H](O)[C@@H](C)O7)[C@H](O)[C@@H](C)O6)c(C)c(O)c5c(O)c4C(=O)[C@H]3O[C@H]3C[C@@H](O[C@H]4C[C@@H](O[C@H]5C[C@](C)(O)[C@H](O)[C@@H](C)O5)[C@@H](O)[C@@H](C)O4)[C@H](O)[C@@H](C)O3)cc2c1 [YL-B166],32.3,1.56,2.33,,,
COC(C(=NOCCNC(=O)c1cc2cc(O)ccc2[nH]1)C(O)C(C)O)C1Cc2cc3cc(OC4CC(OC5CC(O)C(O)C(C)O5)C(O)C(C)O4)c(C)c(O)c3c(O)c2C(=O)C1OC1CC(OC2CC(OC3CC(C)(O)C(O)C(C)O3)C(O)C(C)O2)C(O)C(C)O1 (stereo not shown) [YL-B170],365,1.02,70.7,,,
CO[C@H](C(=NOCc1ccc2scnc2c1)[C@@H](O)[C@@H](C)O)[C@@H]1Cc2cc3cc(O[C@H]4C[C@@H](O[C@H]5C[C@@H](O)[C@H](O)[C@@H](C)O5)[C@H](O)[C@@H](C)O4)c(C)c(O)c3c(O)c2C(=O)[C@H]1O[C@H]1C[C@@H](O[C@H]2C[C@@H](O[C@H]3C[C@](C)(O)[C@H](O)[C@@H](C)O3)[C@@H](O)[C@@H](C)O2)[C@H](O)[C@@H](C)O1 [YL-C52],8.07,1.87,6.41,,,
CO[C@H](C(=NOCCNC(=O)c1cc2cc(-c3cnn(C)c3)ccc2[nH]1)[C@@H](O)[C@@H](C)O)[C@@H]1Cc2cc3cc(O[C@H]4C[C@@H](O[C@H]5C[C@@H](O)[C@H](O)[C@@H](C)O5)[C@H](O)[C@@H](C)O4)c(C)c(O)c3c(O)c2C(=O)[C@H]1O[C@H]1C[C@@H](O[C@H]2C[C@@H](O[C@H]3C[C@](C)(O)[C@H](O)[C@@H](C)O3)[C@@H](O)[C@@H](C)O2)[C@H](O)[C@@H](C)O1 [YL-C20],1020,2.1,69.8,,,
COc1cc2cc(C(=O)NCCON=C([C@@H](O)[C@@H](C)O)[C@@H](OC)[C@@H]3Cc4cc5cc(O[C@H]6C[C@@H](O[C@H]7C[C@@H](O)[C@H](O)[C@@H](C)O7)[C@H](O)[C@@H](C)O6)c(C)c(O)c5c(O)c4C(=O)[C@H]3O[C@H]3C[C@@H](O[C@H]4C[C@@H](O[C@H]5C[C@](C)(O)[C@H](O)[C@@H](C)O5)[C@@H](O)[C@@H](C)O4)[C@H](O)[C@@H](C)O3)[nH]c2cc1OC [YL-B158],300,1.28,35.6,,,
COC(C(=NOCCNC(=O)c1[nH]c2ccc(Cl)cc2c1-c1ccc(F)c(Cl)c1)C(O)C(C)O)C1Cc2cc3cc(OC4CC(OC5CC(O)C(O)C(C)O5)C(O)C(C)O4)c(C)c(O)c3c(O)c2C(=O)C1OC1CC(OC2CC(OC3CC(C)(O)C(O)C(C)O3)C(O)C(C)O2)C(O)C(C)O1 (stereo not shown) [YL-C116],,,,4.19,,4.19
